Results taken from PubChem BioAssay AID2305 (GlaxoSmithKline (GSK), 2010).
“And” between values parts separate entries of the source, which are not always exact repeats. Equal entries are not always repeated.

What follows are compounds tested on P. falciparum 3D7 growth, pLDH absorbance (assay: blood-stage malaria parasite growth potency – strain 3D7, dose response (AID 2305)).
`O=C(Nc1ccc(CCN2CCC(c3nc(COCC(F)(F)F)c(-c4ccccc4)o3)CC2)cc1)c1ccc(F)cc1` gave an IC50 of 1970 nM.
In the case of `COc1ccc(-c2nonc2NC(=O)c2cccc(C)c2)cc1OC`, the IC50 is reported as 810 nM.
With `c1cc(CN2CCN(CCN3CCOCC3)CC2)cc(-c2ccc(-c3nc4ccccc4[nH]3)cc2)c1` the IC50 was 130 nM.
Work on `CCCCNCc1ccc(-c2nc(CN(C(=O)Nc3cc([N+](=O)[O-])ccc3F)C3Cc4ccccc4C3)cs2)cc1` yielded an IC50 of 1100 nM.
Compound `CC1(C)CN2CCCC2c2cc(NC(=O)/C=C/c3ccccc3Cl)ccc21` (stereo not drawn) has an IC50 of 990 nM.
`CCNc1cc(C(=O)N[C@@H](Cc2ccccc2)[C@H](O)CNC2CCSCC2)cc(N2CCCC2=O)c1` was tested, and the IC50 was 130 nM.
`COCCNCc1cccc(-c2ccc3c(Nc4cc(O)c(Cl)cc4F)ccnc3c2)c1` showed an IC50 of 110 nM.
For `O=C(N[C@H]1CCN(CCc2ccc(O[C@H]3CCNC3)cc2)C1)c1ccc(Cl)c(Cl)c1`, the IC50 was 830 nM.
Compound `COc1ccc(NC(=O)NC2CCN(CCCOc3ccnc4cc(Cl)ccc34)C2)cc1OC` (stereo not drawn) has an IC50 of 790 nM.
In the case of `Cc1cc(NCC(c2ccccc2)c2ccccc2)nc(NCC2CCCCC2)n1`, the IC50 is reported as 510 nM.
With `Cc1ccc(C)c(C=CC(=O)NC2CCC(CN3CCC(c4c[nH]c5ccccc45)CC3)CC2)c1` (stereo not drawn) the IC50 was 760 nM and 700 nM.
With `CC(=O)Nc1nnc(SCc2c(C)cc(C(C)(C)C)cc2C)s1` the IC50 was 700 nM.
For `CCCC(=O)Nc1ccc(Nc2nc(C)cc(N3CCCC3)n2)cc1`, the IC50 was 1490 nM.
For `CN1CCC(C(=O)N(Cc2ccc(-c3ccc(CNCCc4ccc(S(C)(=O)=O)cc4)cn3)cc2)C2Cc3ccccc3C2)CC1`, the IC50 was 660 nM.
For `Cn1cc(C(=O)Nc2cccc(-c3cccc(-c4nc5ccc(F)cc5[nH]4)c3)c2)n(C)c1=O`, the IC50 was 390 nM.
Compound `Cc1cc(N[C@@H](Cc2ccccc2)C(=O)NCCc2ccccc2)nc(NCCc2ccccc2)n1` has an IC50 of 850 nM.
Work on `COc1ccccc1C1CCN(C2CCC(NC(=O)/C=C/c3cccc(Cl)c3F)CC2)CC1` (stereo not drawn) yielded an IC50 of 1290 nM.
`CCc1c[nH]c2c(N3CCCS3(=O)=O)cc(C(=O)N[C@@H](Cc3ccccc3)[C@H](O)CNC(C)(C)CCCC(C)C)cc12` was tested, and the IC50 was 670 nM.
Work on `Nc1cccc(-c2ccc3ccnc(N)c3c2)c1` yielded an IC50 of 800 nM.
In the case of `N/C(=N/C(=NCCCCCCN=C(/N=C(/N)Nc1ccc(Cl)cc1)N1CCOCC1)N1CCOCC1)Nc1ccc(Cl)cc1`, the IC50 is reported as 710 nM.
`N#Cc1ccc(N2CCN(Cc3cccc(-c4ccc(-c5nc6ccc(C(F)(F)F)cc6[nH]5)s4)c3)CC2)nc1` was tested, and the IC50 was 1040 nM.
Compound `O=C(NCCCCCN1CCC(c2ccc(O)cc2)CC1)c1ccc(-c2ccccc2)cc1` has an IC50 of 930 nM.
In the case of `C=CCn1c(Sc2ccc(C#N)c([N+](=O)[O-])c2)nnc1-c1cc(OC)cc(OC)c1`, the IC50 is reported as 440 nM.
In the case of `Cc1ccc(OC2CCN(CCCCC3(C)C(=O)Nc4ccccc43)CC2)cc1` (stereo not drawn), the IC50 is reported as 740 nM.
In the case of `O=C(Nc1ccccc1)Nc1cccc(-c2ccc(-c3nc4ccc(C(F)(F)F)cc4[nH]3)cc2)c1`, the IC50 is reported as 230 nM.
In the case of `COc1cc(NC(=O)c2nn(CCCN3CCC4(CC3)C(=O)NCN4c3ccccc3)cc2-c2ccc(Cl)c(Cl)c2)cc(OC)c1OC`, the IC50 is reported as 750 nM.
For `Cc1cc2nc(-c3ccc(/C=C/C(=O)NC4CCN(Cc5ccccc5)CC4)cc3)[nH]c2cc1C`, the IC50 was 590 nM.
Compound `OC(CNc1ccnc(Nc2ccccc2)n1)c1cccc(C(F)(F)F)c1` (stereo not drawn) has an IC50 of 650 nM.
In the case of `Cc1ncc([N+](=O)[O-])n1CCOC(=O)NC(NCC1COc2ccccc2O1)C(Cl)(Cl)Cl` (stereo not drawn), the IC50 is reported as 220 nM.
Compound `Nc1c2ccccc2nc2cc([N+](=O)[O-])ccc12` has an IC50 of 870 nM.
For `Nc1ncc(-c2cn[nH]c2)cc1-c1nc2ncc(Cl)cc2[nH]1`, the IC50 was 910 nM.
With `OCC1CCN(Cc2ccc(-c3cccc(-c4nc5ccccc5[nH]4)c3)cc2)CC1` the IC50 was 810 nM.
`Cc1ccc2c(NN=Cc3cccc([N+](=O)[O-])c3)cc(C)nc2c1` gave an IC50 of 270 nM.
`CC(C)(C)OC(=O)N[C@@H](CS(=O)(=O)CCN=C(N)COCc1ccccc1)C(=O)OC(C)(C)C` was tested, and the IC50 was 820 nM.
Compound `Nc1nc(N)c2nc(C3CC=CCC3)c(N)nc2n1` (stereo not drawn) has an IC50 of 160 nM.
Compound `CNCCNC(=O)C1Cc2c([nH]c3c(C)cccc23)C(c2ccc(Cl)c(Cl)c2)N1` (stereo not drawn) has an IC50 of 720 nM.
`CC(C)N1CCN(c2ccc(OCCCCN3CCN(c4cccc(Cl)c4Cl)CC3)c(C(F)(F)F)c2)CC1` was tested, and the IC50 was 820 nM.
In the case of `O=C(/C=C/c1ccc(Cl)cc1)NCCCCCN1CCCC(C(=O)Nc2ccc(Cl)cc2)C1` (stereo not drawn), the IC50 is reported as 1050 nM.
Work on `COc1ccc2nccc(N3CCC(NCCNS(=O)(=O)c4ccc5c(c4)NC(=O)CS5)C3)c2n1` (stereo not drawn) yielded an IC50 of 900 nM.
In the case of `c1ccc2c(NCCc3cnc[nH]3)c3ccccc3nc2c1`, the IC50 is reported as 1040 nM.
Compound `CS(=O)(=O)Nc1ccc(-c2cnc3[nH]cc(-c4ccc(C(=O)O)cc4)c3c2)cc1` has an IC50 of 800 nM.
In the case of `CCOC(=O)c1ccc(NC(=O)Nc2cccc(-c3ccc(-c4nc5ccccc5[nH]4)cc3)c2)cc1`, the IC50 is reported as 210 nM.
For `CN(CCCN(C)c1cc(NC(=O)c2ccc(F)cc2)ccn1)Cc1cccc(F)c1`, the IC50 was 1220 nM.
`COc1cc2nc(N3CCC(CCCC4CCNCC4)CC3)nc(NCc3ccccn3)c2cc1OC` was tested, and the IC50 was 760 nM.
For `COc1ccc2nccc([C@@H](O)CN3CCC(NCc4cc5ccccc5[nH]4)CC3)c2c1`, the IC50 was 1100 nM.
With `c1ccc(CN2CCC(NCc3ccc(-c4ccc(CNCc5cccnc5)cn4)cc3)CC2)cc1` the IC50 was 880 nM.
For `Cc1c(C(=O)Nc2cc(Sc3ccc(F)cc3)cc([N+](=O)[O-])c2)sc2ncn(Cc3ccccc3F)c(=O)c12`, the IC50 was 800 nM.
`COc1cccc2cc(C(=O)N[C@@H](CC(C)C)C(=O)N[C@H](/C=N/N3CCOC3=O)Cc3ccccc3)oc12` was tested, and the IC50 was 690 nM.
